According to patent US8962558B2, “Methods for reducing GnRH-positive tumor cell proliferation using the GnRH antagonist IN3” (priority 1997, dated 2015):
Square brackets hold non-standard residues; d marks the D form. Peptide text beside a SMILES is read from it. * marks the point of attachment. dPhe(4-NHCONH2) = NC(=O)Nc1ccc(C[C@@H](N)C(=O)O)cc1; Dihydroorotyl(S) = O=C1C[C@@H](C(=O)*)NC(=O)N1; d(hArg(Et2)) = CCN=C(NCC)NCCCC[C@@H](N)C(=O)O; hArg(Et2) = CCN=C(NCC)NCCCC[C@H](N)C(=O)O; dPhe(4-Cl) = N[C@H](Cc1ccc(Cl)cc1)C(=O)O; Phe(4-NH2) = Nc1ccc(C[C@H](N)C(=O)O)cc1; d2Nal = N[C@H](Cc1ccc2ccccc2c1)C(=O)O; Lys(iPr) = CC(C)NCCCC[C@H](N)C(=O)O; NMeY = CN[C@@H](Cc1ccc(O)cc1)C(=O)O; d3Pal = N[C@H](Cc1cccnc1)C(=O)O

What was measured:
[1] = test system: human glioblastoma cell lines U-87MG or U-373MG, Kaposi sarcoma cell lines KSY-1 or KS-SLK, malignant melanoma cell line MV3 or BLM, medulloblastoma cell line …; experiment: Proliferation assay on cell cultures (Example 3); type: cell-based; settings: for anti-proliferative effects in tumor cells: cell lines of Example 3 treated with the substance; for anti-proliferative effect compared with Cetrorelix only: given additionally as a second GnRH antagonist
Protocol: A human cell line, such as the well known human glioblastoma cell lines U-87MG or U-373MG (Pinski et al., supra), or a human cell line such as the well known Kaposi sarcoma cell lines KSY-1 or KS-SLK (Parkash et al., 1996, New England Journal of Medicine, 335, 17, 1261-1269), or a human cell line such as the well known human malignant melanoma cell line MV3 or BLM (Goldbrunner, R. H., et al., 1996, Anticancer Research 16 (6B), 3679-87), or a human medulloblastoma cell line such as the well known cell line Daoy or D283 MED (Stockhammer et al., 1995, J. Neurosurgery, 83, 672-681), or human meningeoma cell cultures (Boyle-Wash, E., et al., 1995, Journal of Endocrinology, 145, 155-161), are cultured as previously described for the above-mentioned cell lines and then treated with a concentration of the GnRH agonist Triptorelin®, GnRH antagonist SB-75 (Cetrorelix®) or GnRH antagonist Ramorelix®. […]
In another embodiment, the above-mentioned cell lines are treated as described by Emons, G., et al., 1993, supra, and Irmer, G., 1995, supra, with a concentration of the GnRH peptide antagonist Ac-D-Nal(2)-D-4-ClPhe-D-Pal-Ser-1-MePal-D-IsopropylLys-Leu-IsopropylLys-Pro-D-AlaNH2 (also known as Ant 135-25; the Mepal portion is known as 1-Methyl-3-[3′-pyridyl]-alanine), Teverelix (also known as Antarelix®), Cetrorelix (also known as Cetrotide®), Abarelix (also known as Plenaxis®), D-63153 (also known as Ozarelix®), acyline, azaline B, antide (also known as Iturelix®), Degarelix (FE200486), Ganirelix, Nal-Glu, Orntide (also known as Ornirelix®), Elagolix, or with antagonist peptidomimetic ((2S)-2-[5-[2-(2-azabicyclo[2,2,2]oct-2-yl)-1,1-dimethyl-2-oxoethyl]-2-(3,5-dimethylphenyl)-1H-indol-3-yl]-N-(2-pyridin-4-ylethyl-)propan-1-amine (also known as “IN3”).
In another embodiment, the cell lines used above were each additionally treated with a second GnRH antagonist, namely one of the GnRH antagonists Cetrorelix®, Ant 135-25, IN3, degarelix, Antarelix®, Antide®, and Ramorelix® or alternatively with one of the GnRH antagonists that have been disclosed in U.S. Pat. Nos. 6,939,88, 6,200,957, 5,296,468, 4,851,385, 7,361,633, 7,288,517, WO/2009/106597 or PCT/EP2009/052326, U.S. Pat. Nos. 5,480,969, 5,198,533, or UK Patent GB 2 246782 B, wherein these additional treatment procedures were carried out in a manner similar to those reported in Emons et al., supra, using SB 75 (Cetrorelix®). […]

[2] = test system: small cell lung carcinoma cell lines NCI-H1688, NCI-H1417, NCI-H1672, NCI-H1836, DMS-79, DM-553, DMS-114, SW-1271, NCI-H2227, NCI-HI1963, SHP-77 and H-69 AR; experiment: Proliferation assay on small cell lung carcinoma cell lines (Example 3); type: cell-based, human; settings: small cell lung carcinoma cell lines treated with the substance
Protocol: In another embodiment, the small cell lung carcinoma cell lines NCI-H1688, NCI-H1417, NCI-H1672, NCI-H1836, DMS-79, DM-553, DMS-114, SW-1271, NCI-H2227, NCI-HI1963 and SHP-77 in addition to the multidrug-resistant small cell lung carcinoma cell line H-69 AR, are cultured as described above and then treated as described by Emons, G., et al., 1993, supra, and Irmer, G., 1995, supra, with various concentrations of the GnRH agonists (D-Lys6)-GnRH, Lutrelin, Histrelin, Nafarelin, Azagly-Nafarelin, Deslorelin, Cystorelin, Decapeptyl, Gonadorelin, GnRH, D-Lys(6)-GnRH II, Lamprey GnRH II, (D-Lys6)-Lamprey GnRH, (D-Lys6)-Lamprey GnRH II and Lamprey GnRH III.
In another embodiment, the small cell lung carcinoma cell lines NCI-H1688, NCI-H1417, NCI-H1672, NCI-H1836, DMS-79, DM-553, DMS-114, SW-1271, NCI-H2227, NCI-HI1963 and SHP-77 in addition to the multidrug-resistant small cell lung carcinoma cell line H-69 AR, are cultured as described above for the above-mentioned cell lines, and then treated as described by Emons, G., et al., 1993, supra, and Irmer, G., 1995, supra, with a concentration of the GnRH antagonist Cetrorelix (also known as Cetrotide®) or with a GnRH peptide antagonist Ac-D-Nal(2)-D-4-ClPhe-D-Pal-Ser-1-MePal-D-IsopropylLys-Leu-IsopropylLys-Pro-D-AlaNH2 wherein Mepal is 1-Methyl-3-[3′-pyridyl]-alanine or Ant 135-25 (also known as Ac-D-Nal(2)-D-4-Cl-Phe-D-Pal-Ser-1-MePal-D-IsopropylLys-Leu-IsopropylLys-Pro-D-AlaNH2), Teverelix (also known as Antarelix®), Cetrorelix (also known as Cetrotide®), Abarelix (also known as Plenaxis®), D-63153 (also known as Ozarelix®), acyline, azaline B, antide (also known as Iturelix®), Degarelix (FE200486), Ganirelix, Nal-Glu, Orntide (also known as Ornirelix®) or with antagonist peptidomimetic ((2S)-2-[5-[2-(2-azabicyclo[2,2,2]oct-2-yl)-1,1-dimethyl-2-oxoethyl]-2-(3,5-dimethylphenyl)-1H-indol-3-yl]-N-(2-pyridin-4-ylethyl-)propan-1-amine (also known as “IN3”).

| Molecule | anti-proliferative effects in tumor cells [1] | anti-proliferative effects in tumor cells [2] | anti-proliferative effect compared with Cetrorelix only [1] |
| --- | --- | --- | --- |
| CCNC(=O)[C@@H]1CCCN1C(=O)[C@H](CCCN=C(N)N)NC(=O)[C@H](CC(C)C)N(C)C(=O)[C@@H](Cc1c[nH]c2ccccc12)NC(=O)[C@H](Cc1ccc(O)cc1)NC(=O)[C@H](CO)NC(=O)[C@H](Cc1c[nH]c2ccccc12)NC(=O)[C@H](Cc1cnc[nH]1)NC(=O)[C@@H]1CCC(=O)N1 [Lutrelin] | Significant anti-proliferative effects | Significant anti-proliferative effects | – |
| CCNC(=O)[C@@H]1CCCN1C(=O)[C@H](CCCNC(=N)N)NC(=O)[C@H](CC(C)C)NC(=O)[C@@H](Cc1cn(Cc2ccccc2)cn1)NC(=O)[C@H](Cc1ccc(O)cc1)NC(=O)[C@H](CO)NC(=O)[C@H](Cc1c[nH]c2ccccc12)NC(=O)[C@H](Cc1cnc[nH]1)NC(=O)[C@@H]1CCC(=O)N1 [Histrelin] | Significant anti-proliferative effects | Significant anti-proliferative effects | – |
| Cc1cc(C)cc(-c2[nH]c3ccc(C(C)(C)C(=O)N4CC5CCC4CC5)cc3c2[C@H](C)CNCCc2ccncc2)c1 [IN3, (2S)-2-[5-[2-(2-azabicyclo[2,2,2]oct-2-yl)-1,1-dimethyl-2-oxoethyl]-2-(3,5-dimethylphenyl)-1H-indol-3-yl]-N-(2-pyridin-4-ylethyl-)propan-1-amine] | Significant anti-proliferative effects | Significant anti-proliferative effects | significantly stronger anti-proliferative effect |
| CC(C)C[C@H](NC(=O)[C@@H](Cc1c[nH]c2ccccc12)NC(=O)[C@H](Cc1ccc(O)cc1)NC(=O)[C@H](CO)NC(=O)[C@H](Cc1c[nH]c2ccccc12)NC(=O)[C@H](Cc1c[nH]cn1)NC(=O)[C@@H]1CCC(=O)N1)C(=O)N[C@@H](CCCNC(=N)N)C(=O)N1CCC[C@H]1C(=O)NCC(N)=O [Decapeptyl] | – | Significant anti-proliferative effects | – |
| Nal-Glu | Significant anti-proliferative effects | Significant anti-proliferative effects | – |
| COc1cccc(-c2c(C)n(Cc3c(F)cccc3C(F)(F)F)c(=O)n(C[C@H](NCCCC(=O)O)c3ccccc3)c2=O)c1F [Elagolix, 4-[[(1R)-2-[5-(2-Fluoro-3-methoxyphenyl)-3-[[2-fluoro-6(trifluoromethyl)phenyl]methyl]-3,6-dihydro-4-methyl-2,6-dioxo-1(2H)-pyrimidinyl]-1-phenylethyl]amino]butanoic acid] | Significant anti-proliferative effects | – | – |
| CCN=C(NCC)NCCCC[C@H](NC(=O)[C@H](CC(C)C)NC(=O)[C@@H](CCCCNC(=NCC)NCC)NC(=O)[C@H](Cc1ccc(O)cc1)NC(=O)[C@H](CO)NC(=O)[C@@H](Cc1cccnc1)NC(=O)[C@@H](Cc1ccc(Cl)cc1)NC(=O)[C@@H](Cc1ccc2ccccc2c1)NC(C)=O)C(=O)N1CCC[C@H]1C(=O)N[C@H](C)C(N)=O [Ganirelix] (Ac-[d2Nal][dPhe(4-Cl)][d3Pal]SY[d(hArg(Et2))]L[hArg(Et2)]P[dA]-NH2) | Significant anti-proliferative effects | Significant anti-proliferative effects | – |
| CCNC(=O)[C@@H]1CCCN1C(=O)[C@H](CCCN=C(N)N)NC(=O)[C@H](CC(C)C)NC(=O)[C@@H](Cc1c[nH]c2ccccc12)NC(=O)[C@H](Cc1ccc(O)cc1)NC(=O)[C@H](CO)NC(=O)[C@H](Cc1c[nH]c2ccccc12)NC(=O)[C@H](Cc1cnc[nH]1)NC(=O)[C@@H]1CCC(=O)N1 [Deslorelin] | Significant anti-proliferative effects | Significant anti-proliferative effects | – |
| CC(=O)N[C@H](Cc1ccc2ccccc2c1)C(=O)N[C@H](Cc1ccc(Cl)cc1)C(=O)N[C@H](Cc1cccnc1)C(=O)N[C@@H](CO)C(=O)N[C@@H](Cc1ccc(NC(=O)[C@@H]2CC(=O)NC(=O)N2)cc1)C(=O)N[C@H](Cc1ccc(NC(N)=O)cc1)C(=O)N[C@@H](CC(C)C)C(=O)N[C@@H](CCCCNC(C)C)C(=O)N1CCC[C@H]1C(=O)N[C@H](C)C(N)=O [Degarelix] (Ac-[d2Nal][dPhe(4-Cl)][d3Pal]S[Phe(4-NH2)](Dihydroorotyl(S))[dPhe(4-NHCONH2)]L[Lys(iPr)]P[dA]-NH2) | Significant anti-proliferative effects | Significant anti-proliferative effects | significantly stronger anti-proliferative effect |
| Ac-D-Nal(2)-D-4-ClPhe-D-Pal-Ser-1-MePal-D-IsopropylLys-Leu-IsopropylLys-Pro-D-AlaNH2 [Ant 135-25] | Significant anti-proliferative effects | Significant anti-proliferative effects | significantly stronger anti-proliferative effect |
| CC(C)C[C@H](NC(=O)CNC(=O)[C@H](Cc1ccc(O)cc1)NC(=O)[C@H](CO)NC(=O)[C@H](Cc1c[nH]c2ccccc12)NC(=O)[C@H](Cc1cnc[nH]1)NC(=O)[C@@H]1CCC(=O)N1)C(=O)N[C@@H](CCCNC(=N)N)C(=O)N1CCC[C@H]1C(=O)NCC(N)=O [Gonadorelin] | Significant anti-proliferative effects | Significant anti-proliferative effects | – |
| CC(=O)N[C@H](Cc1ccc2ccccc2c1)C(=O)N[C@H](Cc1ccc(Cl)cc1)C(=O)N[C@H](Cc1cccnc1)C(=O)N[C@@H](CO)C(=O)N(C)[C@@H](Cc1ccc(O)cc1)C(=O)N[C@H](CC(N)=O)C(=O)N[C@@H](CC(C)C)C(=O)N[C@@H](CCCCNC(C)C)C(=O)N1CCC[C@H]1C(=O)N[C@H](C)C(N)=O [Abarelix] (Ac-[d2Nal][dPhe(4-Cl)][d3Pal]S[NMeY][dN]L[Lys(iPr)]P[dA]-NH2) | Significant anti-proliferative effects | Significant anti-proliferative effects | – |
